US9796711B2, “Substituted pyrazolo[3,4-b]pyridin-6-carboxylic acids and method of use” (AbbVie S.àr.l., priority 2015, dated 2017)

Molecular target: T1, ΔF508-CFTR (Homo sapiens, UniProt P13569, DEL508-508)
T1 construct: host or cells: CFBE41o-, doxycycline-inducible
Test: CFTR cell surface levels using HRP-tagged ΔF508-CFTR expressing CFBE cells, in the presence of a co-corrector
Type: cell-based
Details: HRP-tagged ΔF508-CFTR expressing CFBE cells, in the presence of 3 μM co-corrector; for EC50: read-out: EC50
From the text: Measuring CFTR Cell Surface Levels Using HRP-Tagged AF508-CFTR Expressing CFBE Cells
The HRP-tagged AF508-CFTR cell assay measures the expression of CFTR-ΔF508 at the plasma membrane. CFTR-ΔF508 has a folding defect leading to absence of protein at the plasma membrane. This assay is used to evaluate the capacity of compounds to increase the expression of CFTR-ΔF508 at the plasma membrane. The CFTR-ΔF508 is tagged with HRP (horse radish peroxidase enzyme) within the ECL4 (Extracellular loop 4) of CFTR (Phuan, P.-W. et al. Synergy-based small-molecule screen using a human lung epithelial cell line yields AF508-CFTR correctors that augment VX-809 maximal efficacy. Mol. Pharmacol. 86, 42-51 (2014)). When HRP-tagged AF508-CFTR is present at the plasma membrane, the HRP enzyme activity can be measured. The amount of CFTR-ΔF508 that can be rescued to the plasma membrane is correlated with the amount of functional enzyme that can be measured.
There are several ways to measure the capacity of compounds to rescue CFTR-ΔF508 to the plasma membrane; either compounds are evaluated on their own and the impact on plasma membrane levels is measured or compounds are evaluated in combination with a co-corrector, i.e. a compound that rescues CFTR-ΔF508 to the plasma membrane but rescue can be enhanced by addition of compounds due to a complementary mode of action.
Activity of Compounds in Combination with Co-Corrector:
For this purpose doxycycline-inducible AF508-CFTR-HRP expressing CFBE4lo-cells (obtained from Gergely Lukacs, McGill University) were maintained in MEM (Minimum Essential Medium, Gibco; 31095) supplemented with 10% fetal bovine serum (Hyclone; SV30160.03) under puromycin (3 μg/mL) and G418 selection (0.2 mg/mL). For compound testing, cells were seeded at 4000 cells/well in white 384-well plates (Greiner; 781080) in 50 μL of medium containing 0.5 μg/mL doxycycline and incubated for 68 hours at 37° C., 5% CO2. On day four, 10 μL of test compounds diluted in PBS (phosphate buffered saline) were added to the plates at a final DMSO concentration of 0.1%. In order to measure compound synergy with a co-corrector, 3 μM co-corrector (3-[(2R,4R)-4-({[1-(2,2-difluoro-1,3-benzodioxol-5-yl)cyclopropyl]carbonyl}amino)-7-methoxy-3,4-dihydro-2H-chromen-2-yl]benzoic acid) was added along with test compounds. All compound plates contained negative controls (DMSO) and positive controls (3 μM co-corrector). Cell plates were incubated at 33° C., 5% CO2 for 20 hours. On day five, the cells were washed five times with phosphate-buffered saline, and HRP activity was assayed by the addition of 50 μL/well of HRP substrate (SuperSignal™ West Pico Chemiluminescent Substrate, Thermo Scientific; 34080). After incubation for 15 minutes in the dark, the chemiluminescence was measured using a plate reader (EnVision®, Perkin Elmer). Raw data were normalized to percentage activity values using the equation: 100×(Sample−Negative control)/(Positive control−Negative Control).

T1 sequence (P13569 with tags, fused parts or gaps DEL508-508): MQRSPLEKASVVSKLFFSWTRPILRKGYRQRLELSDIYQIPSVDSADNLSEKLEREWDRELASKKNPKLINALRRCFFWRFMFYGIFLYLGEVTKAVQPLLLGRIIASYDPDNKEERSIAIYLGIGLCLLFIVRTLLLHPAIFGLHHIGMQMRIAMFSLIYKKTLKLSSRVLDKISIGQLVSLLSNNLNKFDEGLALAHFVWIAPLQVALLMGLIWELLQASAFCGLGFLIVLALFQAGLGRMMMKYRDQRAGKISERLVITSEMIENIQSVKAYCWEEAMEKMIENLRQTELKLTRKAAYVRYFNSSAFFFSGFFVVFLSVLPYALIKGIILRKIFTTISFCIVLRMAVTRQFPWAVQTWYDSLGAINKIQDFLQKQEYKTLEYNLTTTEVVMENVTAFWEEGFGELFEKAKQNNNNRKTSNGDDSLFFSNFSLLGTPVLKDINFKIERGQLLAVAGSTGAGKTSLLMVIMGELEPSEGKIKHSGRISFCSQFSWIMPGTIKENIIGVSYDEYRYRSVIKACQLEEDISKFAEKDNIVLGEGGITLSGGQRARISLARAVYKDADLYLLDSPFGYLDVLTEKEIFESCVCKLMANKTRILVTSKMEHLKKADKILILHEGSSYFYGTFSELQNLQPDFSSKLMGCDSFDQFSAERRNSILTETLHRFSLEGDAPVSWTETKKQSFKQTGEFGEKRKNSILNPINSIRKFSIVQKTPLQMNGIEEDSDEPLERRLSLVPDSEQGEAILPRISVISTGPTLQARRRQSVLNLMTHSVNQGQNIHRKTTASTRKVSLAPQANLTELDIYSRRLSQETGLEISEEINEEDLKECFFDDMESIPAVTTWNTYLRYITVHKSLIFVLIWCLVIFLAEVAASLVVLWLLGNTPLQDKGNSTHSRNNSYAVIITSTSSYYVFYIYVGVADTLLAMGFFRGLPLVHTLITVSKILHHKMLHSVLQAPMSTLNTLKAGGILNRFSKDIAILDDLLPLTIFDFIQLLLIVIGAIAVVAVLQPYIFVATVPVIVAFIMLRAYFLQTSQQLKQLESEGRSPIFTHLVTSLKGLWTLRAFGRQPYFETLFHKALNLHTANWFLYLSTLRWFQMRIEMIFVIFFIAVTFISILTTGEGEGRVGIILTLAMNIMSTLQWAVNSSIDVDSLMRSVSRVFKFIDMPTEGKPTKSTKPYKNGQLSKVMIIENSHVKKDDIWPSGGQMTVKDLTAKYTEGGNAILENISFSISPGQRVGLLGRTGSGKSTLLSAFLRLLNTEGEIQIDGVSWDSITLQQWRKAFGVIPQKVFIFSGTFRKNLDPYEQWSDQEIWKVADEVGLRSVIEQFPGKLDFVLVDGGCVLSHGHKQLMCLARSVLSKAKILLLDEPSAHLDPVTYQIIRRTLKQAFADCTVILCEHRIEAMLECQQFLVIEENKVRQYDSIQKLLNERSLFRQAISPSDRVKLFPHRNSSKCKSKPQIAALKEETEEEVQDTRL

| Structure (SMILES) | % Activation | EC50 |
| --- | --- | --- |
| Cc1nn(-c2ccccc2)c2nc(C(=O)O)cc(-c3ccc(N4CCOCC4)cc3)c12 [compound 1, 3-methyl-4-[4-(morpholin-4-yl)phenyl]-1-phenyl-1H-pyrazolo[3,4-b]pyridine-6-carboxylic acid] | 354.48% | 1.04 µM |
| Cc1nn(C2CCCCC2)c2nc(C(=O)O)cc(-c3ccc(N4CCOCC4)cc3)c12 [compound 17, 1-cyclohexyl-3-methyl-4-[4-(morpholin-4-yl)phenyl]-1H-pyrazolo[3,4-b]pyridine-6-carboxylic acid] | 272.5% | 1.14 µM |
| CC(C)(C)c1nn(-c2ccccc2)c2nc(C(=O)O)cc(-c3ccc(N4CCOCC4)cc3)c12 [compound 40, 3-tert-butyl-4-[4-(morpholin-4-yl)phenyl]-1-phenyl-1H-pyrazolo[3,4-b]pyridine-6-carboxylic acid] | 340.8% | 0.393 µM |
| Cc1nn(-c2ccccc2)c2nc(C(=O)O)cc(-c3ccc(N4CCOCC4)nc3)c12 [compound 50, 3-methyl-4-[6-(morpholin-4-yl)pyridin-3-yl]-1-phenyl-1H-pyrazolo[3,4-b]pyridine-6-carboxylic acid] | 313.2% | 2.12 µM |
| Cc1nn(-c2ccccc2)c2nc(C(=O)O)cc(-c3ccc(N4CCC(C#N)CC4)cc3)c12 [compound 109, 4-[4-(4-cyanopiperidin-1-yl)phenyl]-3-methyl-1-phenyl-1H-pyrazolo[3,4-b]pyridine-6-carboxylic acid] | 398.15% | 0.752 µM |
| Cc1nn(-c2ccccc2)c2nc(C(=O)O)cc(-c3ccc(N(C)C4CCOCC4)cc3)c12 [compound 110, 3-methyl-4-{4-[methyl(oxan-4-yl)amino]phenyl}-1-phenyl-1H-pyrazolo[3,4-b]pyridine-6-carboxylic acid] | 397.65% | 0.536 µM |
| CC1(c2nn(-c3ccccc3)c3nc(C(=O)O)cc(-c4ccc(N5CCOCC5)cc4)c23)COC1 [compound 113, 3-(3-methyloxetan-3-yl)-4-[4-(morpholin-4-yl)phenyl]-1-phenyl-1H-pyrazolo[3,4-b]pyridine-6-carboxylic acid] | 277% | 1.17 µM |
| COCc1nn(-c2ccccc2)c2nc(C(=O)O)cc(-c3ccc(N4CCOCC4)cc3)c12 [compound 122, 3-(methoxymethyl)-4-[4-(morpholin-4-yl)phenyl]-1-phenyl-1H-pyrazolo[3,4-b]pyridine-6-carboxylic acid] | 311.75% | 1.77 µM |
| Cc1nn(-c2ccccc2)c2nc(C(=O)O)cc(-c3ccc(N4CCC(O)CC4)cc3)c12 [compound 144, 4-[4-(4-hydroxypiperidin-1-yl)phenyl]-3-methyl-1-phenyl-1H-pyrazolo[3,4-b]pyridine-6-carboxylic acid] | 338.4% | 2.62 µM |
| CC(C)c1nn(C2CCCCC2)c2nc(C(=O)O)cc(N3CCC(C#N)CC3)c12 [compound 263, 4-(4-cyanopiperidin-1-yl)-1-cyclohexyl-3-(propan-2-yl)-1H-pyrazolo[3,4-b]pyridine-6-carboxylic acid] | 334.25% | 1.13 µM |
| CC1(c2nn(-c3ccccc3)c3nc(C(=O)O)cc(-c4ccc(N5CCOCC5)cc4)c23)CCC1 [compound 332, 3-(1-methylcyclobutyl)-4-[4-(morpholin-4-yl)phenyl]-1-phenyl-1H-pyrazolo[3,4-b]pyridine-6-carboxylic acid] | 346.12% | 0.917 µM |
| O=C(O)c1cc(N2C[C@@H](O)[C@H](O)C2)c2c(C3CCC3)nn(-c3ccccc3)c2n1 [compound 445, 3-cyclobutyl-4-[(3R,4R)-3,4-dihydroxypyrrolidin-1-yl]-1-phenyl-1H-pyrazolo[3,4-b]pyridine-6-carboxylic acid] | 127.85% | > 10 µM |
| CN(CC1CCOCC1)c1cc(C(=O)O)nc2c1c(C1CCC1)nn2-c1ccccc1 [compound 554, 3-cyclobutyl-4-{methyl[(oxan-4-yl)methyl]amino}-1-phenyl-1H-pyrazolo[3,4-b]pyridine-6-carboxylic acid] | 365.83% | 1.72 µM |
| CN(C)C(=O)CN1CCN(c2cc(C(=O)O)nc3c2c(C2CCC2)nn3-c2ccccc2)CC1 [compound 559, 3-cyclobutyl-4-{4-[2-(dimethylamino)-2-oxoethyl]piperazin-1-yl}-1-phenyl-1H-pyrazolo[3,4-b]pyridine-6-carboxylic acid] | 352.47% | 2.05 µM |
| CN1CCN(c2cc(C(=O)O)nc3c2c(C2CCC2)nn3-c2ccccc2)CC1 [compound 563, 3-cyclobutyl-4-(4-methylpiperazin-1-yl)-1-phenyl-1H-pyrazolo[3,4-b]pyridine-6-carboxylic acid] | 272.97% | 2.23 µM |
| CC(C)CN1CCC(CN(C)c2cc(C(=O)O)nc3c2c(C2CCC2)nn3-c2ccccc2)CC1 [compound 564, 3-cyclobutyl-4-(methyl{[1-(2-methylpropyl)piperidin-4-yl]methyl}amino)-1-phenyl-1H-pyrazolo[3,4-b]pyridine-6-carboxylic acid] | 369.1% | 2.45 µM |
| CN(CCN1CCOCC1)c1cc(C(=O)O)nc2c1c(C1CCC1)nn2-c1ccccc1 [compound 565, 3-cyclobutyl-4-{methyl[2-(morpholin-4-yl)ethyl]amino}-1-phenyl-1H-pyrazolo[3,4-b]pyridine-6-carboxylic acid] | 319.8% | 1.93 µM |
| CN(C)[C@@H]1CCN(c2cc(C(=O)O)nc3c2c(C2CCC2)nn3-c2ccccc2)C1 [compound 567, 3-cyclobutyl-4-[(3R)-3-(dimethylamino)pyrrolidin-1-yl]-1-phenyl-1H-pyrazolo[3,4-b]pyridine-6-carboxylic acid] | 302.8% | 2.11 µM |
| CN(C)[C@H]1CCN(c2cc(C(=O)O)nc3c2c(C2CCC2)nn3-c2ccccc2)C1 [compound 568, 3-cyclobutyl-4-[(3S)-3-(dimethylamino)pyrrolidin-1-yl]-1-phenyl-1H-pyrazolo[3,4-b]pyridine-6-carboxylic acid] | 279.9% | 2.48 µM |
| CNC(=O)CN1CCN(c2cc(C(=O)O)nc3c2c(C2CCC2)nn3-c2ccccc2)CC1 [compound 569, 3-cyclobutyl-4-{4-[2-(methylamino)-2-oxoethyl]piperazin-1-yl}-1-phenyl-1H-pyrazolo[3,4-b]pyridine-6-carboxylic acid] | 259.37% | 3.06 µM |
| O=C(O)c1cc(N2CCN(C(=O)CN3CCOCC3)CC2)c2c(C3CCC3)nn(-c3ccccc3)c2n1 [compound 570, 3-cyclobutyl-4-{4-[(morpholin-4-yl)acetyl]piperazin-1-yl}-1-phenyl-1H-pyrazolo[3,4-b]pyridine-6-carboxylic acid] | 254% | 3.33 µM |
| O=C(O)c1cc(N2CCCN(CC3CCCO3)CC2)c2c(C3CCC3)nn(-c3ccccc3)c2n1 (centres unmarked) [compound 572, 3-cyclobutyl-4-{4-[(oxolan-2-yl)methyl]-1,4-diazepan-1-yl}-1-phenyl-1H-pyrazolo[3,4-b]pyridine-6-carboxylic acid] | 330.8% | 1.19 µM |
| COc1cc(C(=O)O)nc2c1c(C1CCC1)nn2-c1ccccc1 [compound 584, 3-cyclobutyl-4-methoxy-1-phenyl-1H-pyrazolo[3,4-b]pyridine-6-carboxylic acid] | 202.2% | 2.88 µM |
| O=C(O)c1cc(OC2CCC2)c2c(C3CCC3)nn(-c3ccccc3)c2n1 [compound 585, 3-cyclobutyl-4-(cyclobutyloxy)-1-phenyl-1H-pyrazolo[3,4-b]pyridine-6-carboxylic acid] | 245.3% | 2.49 µM |
| COCCOCCOc1cc(C(=O)O)nc2c1c(C1CCC1)nn2-c1ccccc1 [compound 586, 3-cyclobutyl-4-[2-(2-methoxyethoxy)ethoxy]-1-phenyl-1H-pyrazolo[3,4-b]pyridine-6-carboxylic acid] | 322.2% | 2 µM |
